The results in this text go back to article PMC1177995 (Virology Journal, 2005).

For one assay, the system named is DENV strain New Guinea-2. The assay is classed as cell-based, dengue virus.
The next assay has as its system WNV strain Egypt 101. It is filed as cell-based, West Nile virus. The conditions noted are these: 100 μg/ml, compared to the original peptide.

Where a SMILES comes first, the peptide text is derived from it.

“YFIDTSGAIWGASHLTGVLFDFMGIQGGAVLAK [Scrambled DN59]”: the “inhibitory effect of scrambled peptide against DENV” value with DENV strain New Guinea-2 (100 μg/ml, compared to the original peptide) is given as “no inhibitory activity”. As to `CC[C@H](C)[C@H](NC(=O)[C@H](C)NC(=O)CNC(=O)[C@H](Cc1ccccc1)NC(=O)[C@@H](NC(=O)[C@H](CCC(N)=O)NC(=O)[C@H](Cc1c[nH]cn1)NC(=O)[C@H](CC(C)C)NC(=O)[C@H](C)NC(=O)[C@H](CCCCN)NC(=O)CNC(=O)[C@@H](NC(=O)[C@H](CO)NC(=O)[C@@H](NC(=O)[C@H](Cc1ccccc1)NC(=O)[C@@H](NC(=O)CNC(=O)CNC(=O)[C@H](CC(C)C)NC(=O)[C@H](CO)NC(=O)CNC(=O)[C@H](Cc1ccccc1)NC(=O)[C@H](CC(=O)O)NC(=O)[C@H](Cc1c[nH]c2ccccc12)NC(=O)[C@H](C)NC(=O)[C@@H](NC(=O)[C@H](CC(=O)O)NC(=O)CNC(=O)[C@H](CC(C)C)NC(=O)[C@@H](NC(=O)[C@H](C)NC(=O)[C@@H](N)CCSC)[C@@H](C)CC)[C@@H](C)O)C(C)C)[C@@H](C)O)[C@@H](C)CC)C(C)C)C(=O)N[C@@H](Cc1ccc(O)cc1)C(=O)O` [DN59] (H-MAILGDTAWDFGSLGGVFTSIGKALHQVFGAIY-OH), the “maximum inhibitory activity against DENV” value in the assay on DENV strain New Guinea-2 (at 20 μM, dose-response, mean +/- SD, triplicate) is recorded as 100.0 +/- 0.5%. As to VATWHLDWSREFPLFLMNS [Scrambled WN83], the “inhibitory effect of scrambled peptide against WNV” value in the assay on WNV strain Egypt 101 was “no inhibitory activity”.
